Values joined by “and” are separate entries in the source; they are usually repeats but may differ in a detail not shown here. Equal values may be shown once. “Also recorded” adds a separate entry of the source. Read-outs that look alike come from different tables or passages of the source. One block for each compound: values may come before it.
How the values were obtained:
hD1R = hD1R (Homo sapiens, UniProt P21728); assay: Cell-based functional GPCR assay, cAMP, CHO-D1R; details: for % Stimulation, hD1R: 100 μM compound, % of control agonist response (10 μM DA)
Experimental: (§1) Cell-based functional GPCR assays were conducted in CHO cells and Ba/F3 cells transfected with a plasmid containing the GPCR gene of interest. The functional activity of the test compounds (agonist or antagonist) was evaluated by measuring their effects on cAMP modulation or Ca^2+ ion mobilization, depending on the receptor type. All assays were performed at Eurofins Cerep (Le Bois I’Eveque, France) following their in-house protocol, as stated in our previous reports.
(§2) The functional activity of the test compounds on D1R, D3R, and D4R was assessed by evaluating the effect on cAMP modulation.

hMAO-B = target: T1, hMAO-B (Homo sapiens, UniProt P27338); assay: In vitro hMAO-B inhibition and enzyme kinetics, chemiluminescent MAO-Glo assay; format: biochemical; details: for IC50: recombinant hMAO-B, mean ± SD of triplicate experiments; for SI (selective index): ratio of hMAO-A IC50/hMAO-B IC50
T1 construct: purchased Sigma-Aldrich
T1 sequence (P27338 1-520): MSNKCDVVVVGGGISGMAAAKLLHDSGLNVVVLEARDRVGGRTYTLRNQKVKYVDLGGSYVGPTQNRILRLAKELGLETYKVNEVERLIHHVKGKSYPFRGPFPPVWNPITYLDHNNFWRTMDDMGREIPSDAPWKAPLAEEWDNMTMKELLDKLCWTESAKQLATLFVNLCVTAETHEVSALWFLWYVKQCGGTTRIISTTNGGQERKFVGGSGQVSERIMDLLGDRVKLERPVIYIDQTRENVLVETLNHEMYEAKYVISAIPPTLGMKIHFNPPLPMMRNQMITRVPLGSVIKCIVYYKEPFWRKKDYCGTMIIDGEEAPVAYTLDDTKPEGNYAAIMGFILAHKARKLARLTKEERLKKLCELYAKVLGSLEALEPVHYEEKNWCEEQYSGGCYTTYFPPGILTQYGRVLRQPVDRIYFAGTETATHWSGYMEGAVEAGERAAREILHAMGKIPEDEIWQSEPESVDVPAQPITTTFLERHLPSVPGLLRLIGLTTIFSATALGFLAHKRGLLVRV
Experimental: (§3) A chemiluminescent assay was performed in a white, opaque 96-well plate using the MAO-Glo kit (Promega, Madison, WI, USA) to evaluate human monoamine oxidase (hMAO) inhibitory potential. Detailed experimental conditions and procedures were reported previously. The test compounds were evaluated at different concentrations to obtain an IC50 value. The percent of inhibition (%) was obtained with the following equation: % Inhibition = (Ac − As)/Ac × 100, where Ac is the absorbance of the control and As is the absorbance of the sample. For hMAO-A, clorgyline was used as a positive control.
(§4) Kinetic parameters were analyzed using SigmaPlot (v12.0, SPP Inc., Chicago, IL, USA).

male C57BL/6 mice = assay: Forced swim test; format: in vivo, mouse
Experimental: Male C57BL/6 mice (22–26 g, 7 weeks) were purchased from Orient Bio Inc. (Seongnam-si, Korea), a branch of Charles River Laboratories (Seoul, Republic of Korea), and kept in the University Animal Care Unit for 1 week before the experiments. Five animals were housed per cage and allowed access to water and food ad libitum; the environment was maintained at a constant temperature (23 ± 1 °C) and humidity (60 ± 10%) under a 12 h light/dark cycle (the lights were on from 07:30 to 19:30 h). The treatment and maintenance of the animals were carried out according to the Animal Care and Use Guidelines of Dong-A University, Republic of Korea. All in vivo experiments were performed according to the protocols approved by the Institutional Animal Care and Use Committee of Dong-A University (approved protocol numbers: DIACUC-approved-17-20) and were per the National Institutes of Health guidelines. A forced swim test (FST) was performed in a transparent cylindrical glass cylinder with a diameter of 14 cm and a height of 25 cm filled with 20 cm of water (24 ± 2 °C). Mice were habituated to the experimental environment 1 h before the test. […] Mice were immersed in water and recorded with a video camera for a total of 6 min. Immobility time was analyzed for the last 4 min of the 6 min using a video-based Ethovision System (Noldus, Wageningen, The Netherlands).

hD3R = hD3R (Homo sapiens, UniProt P35462); assay: Cell-based functional GPCR assay, cAMP, CHO-D3R
Experimental: as §1, §2

hD4.4R = target: T2, hD4.4R (Homo sapiens, UniProt P21917); assay: Cell-based functional GPCR assay, cAMP, CHO-D4R; details: for % Stimulation, hD4.4R: 100 μM compound, % of control agonist response (300 nM DA)
T2 sequence (P21917 1-419): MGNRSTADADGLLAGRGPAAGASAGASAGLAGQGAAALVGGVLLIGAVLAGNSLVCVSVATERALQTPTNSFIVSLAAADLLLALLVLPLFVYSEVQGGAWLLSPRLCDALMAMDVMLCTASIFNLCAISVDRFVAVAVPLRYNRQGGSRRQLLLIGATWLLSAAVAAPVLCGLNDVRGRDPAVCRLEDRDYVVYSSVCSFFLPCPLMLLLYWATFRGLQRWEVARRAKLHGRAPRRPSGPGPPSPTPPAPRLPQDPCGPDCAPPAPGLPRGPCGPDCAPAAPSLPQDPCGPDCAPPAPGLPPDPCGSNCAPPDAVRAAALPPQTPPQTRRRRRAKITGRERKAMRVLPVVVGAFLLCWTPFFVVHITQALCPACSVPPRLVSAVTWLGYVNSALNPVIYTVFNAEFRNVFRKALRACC
Experimental: as §1, §2

h5HT1AR = target: T3, h5HT1AR (Homo sapiens, UniProt P08908); assay: Cell-based functional GPCR assay, Ca2+ mobilization, Ba/F3-5HT1AR; details: for % Stimulation, h5HT1AR: 100 μM compound, % of control agonist response (2.5 μM serotonin)
T3 construct: host or cells: Ba/F3 (Ba/F3-5HT1AR)
T3 sequence (P08908 1-422): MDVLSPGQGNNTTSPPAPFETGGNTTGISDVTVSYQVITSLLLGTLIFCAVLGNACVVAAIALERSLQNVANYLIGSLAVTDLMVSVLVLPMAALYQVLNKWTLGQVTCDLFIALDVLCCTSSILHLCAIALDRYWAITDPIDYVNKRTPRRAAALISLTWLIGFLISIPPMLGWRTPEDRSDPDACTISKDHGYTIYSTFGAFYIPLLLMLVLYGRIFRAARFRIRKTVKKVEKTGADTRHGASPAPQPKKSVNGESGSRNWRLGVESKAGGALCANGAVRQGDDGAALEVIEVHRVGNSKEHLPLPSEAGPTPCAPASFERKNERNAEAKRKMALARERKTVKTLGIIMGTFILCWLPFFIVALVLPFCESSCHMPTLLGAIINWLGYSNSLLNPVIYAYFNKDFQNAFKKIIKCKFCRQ
Experimental: as §1
(§5) The functional activity of the test compounds on D2R and 5HT1AR was tested by fluorimetrically evaluating their effect on cytosolic Ca^2+ ion mobilization. […] Then, a fluorescent probe (Fluo8, AAT Bioquest, Sunnyvale, CA, USA) mixed with probenecid in HBSS (Invitrogen, Carlsbad, CA, USA) supplemented with […] (Invitrogen) (pH 7.4) was added to each well, and the cells were allowed to equilibrate for 60 min at 37 °C. […] We then measured the fluorescent intensity, which varied in proportion to the free cytosolic Ca^2+ ion concentration.

hD2LR = target: T4, hD2LR (Homo sapiens, UniProt P14416); assay: Cell-based functional GPCR assay, Ca2+ mobilization, CHO-D2R; details: for % Stimulation, hD2LR: 100 μM compound, % of control agonist response (10 μM DA)
T4 construct: host or cells: CHO (CHO-D2R)
Experimental: as §1, §5

hMAO-A = target: T5, hMAO-A (Homo sapiens, UniProt P21397); assay: In vitro hMAO-A inhibition and enzyme kinetics, chemiluminescent MAO-Glo assay; format: biochemical; details: recombinant hMAO-A; mean ± SD of triplicate experiments
T5 construct: purchased Sigma-Aldrich
T5 sequence (P21397 1-527): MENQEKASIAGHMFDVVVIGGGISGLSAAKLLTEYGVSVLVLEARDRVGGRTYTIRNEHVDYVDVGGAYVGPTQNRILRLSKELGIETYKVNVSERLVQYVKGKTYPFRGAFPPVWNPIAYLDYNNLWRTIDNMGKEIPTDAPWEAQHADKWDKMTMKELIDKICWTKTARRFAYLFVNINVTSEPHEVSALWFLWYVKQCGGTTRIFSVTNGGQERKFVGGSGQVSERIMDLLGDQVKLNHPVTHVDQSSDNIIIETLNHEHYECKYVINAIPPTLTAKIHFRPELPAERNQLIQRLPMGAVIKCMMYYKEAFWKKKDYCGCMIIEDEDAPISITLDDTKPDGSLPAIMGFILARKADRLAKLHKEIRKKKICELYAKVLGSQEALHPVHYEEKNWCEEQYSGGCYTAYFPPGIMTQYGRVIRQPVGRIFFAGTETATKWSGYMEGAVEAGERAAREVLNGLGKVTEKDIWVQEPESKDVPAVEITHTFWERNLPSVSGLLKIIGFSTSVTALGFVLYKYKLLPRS
Experimental: as §3, §4

[1] = parameters: method as in PMID 31173966; details: cited from earlier work
MAO-A = tested on: MAO-A; parameters: method as in earlier work; details: ref 49 (Park et al. 2020); cited from earlier work

Chain of hD3R (P35462 whole entry): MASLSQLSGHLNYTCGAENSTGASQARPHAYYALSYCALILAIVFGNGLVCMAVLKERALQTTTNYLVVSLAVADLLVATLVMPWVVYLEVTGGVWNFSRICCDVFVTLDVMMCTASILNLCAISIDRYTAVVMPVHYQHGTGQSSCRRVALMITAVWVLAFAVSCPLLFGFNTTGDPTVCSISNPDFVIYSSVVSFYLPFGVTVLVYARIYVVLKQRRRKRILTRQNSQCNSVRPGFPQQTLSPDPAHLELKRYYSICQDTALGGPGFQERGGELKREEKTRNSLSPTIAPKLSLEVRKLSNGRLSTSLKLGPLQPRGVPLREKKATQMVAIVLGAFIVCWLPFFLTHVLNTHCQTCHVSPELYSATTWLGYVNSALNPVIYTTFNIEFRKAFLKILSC
Chain of hD1R (P21728 whole entry): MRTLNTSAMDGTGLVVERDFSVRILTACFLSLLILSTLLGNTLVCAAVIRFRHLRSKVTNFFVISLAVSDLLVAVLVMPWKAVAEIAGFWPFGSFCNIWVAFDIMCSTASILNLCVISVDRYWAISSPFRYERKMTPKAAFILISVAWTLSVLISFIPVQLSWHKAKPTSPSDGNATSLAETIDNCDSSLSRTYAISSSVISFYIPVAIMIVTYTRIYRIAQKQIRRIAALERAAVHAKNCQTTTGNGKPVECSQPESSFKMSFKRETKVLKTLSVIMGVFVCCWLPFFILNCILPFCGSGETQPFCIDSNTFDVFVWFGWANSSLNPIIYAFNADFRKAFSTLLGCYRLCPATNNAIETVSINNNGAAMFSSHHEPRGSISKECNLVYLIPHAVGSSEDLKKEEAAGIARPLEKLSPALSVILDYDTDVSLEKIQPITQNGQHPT
T4 sequence (P14416 whole entry): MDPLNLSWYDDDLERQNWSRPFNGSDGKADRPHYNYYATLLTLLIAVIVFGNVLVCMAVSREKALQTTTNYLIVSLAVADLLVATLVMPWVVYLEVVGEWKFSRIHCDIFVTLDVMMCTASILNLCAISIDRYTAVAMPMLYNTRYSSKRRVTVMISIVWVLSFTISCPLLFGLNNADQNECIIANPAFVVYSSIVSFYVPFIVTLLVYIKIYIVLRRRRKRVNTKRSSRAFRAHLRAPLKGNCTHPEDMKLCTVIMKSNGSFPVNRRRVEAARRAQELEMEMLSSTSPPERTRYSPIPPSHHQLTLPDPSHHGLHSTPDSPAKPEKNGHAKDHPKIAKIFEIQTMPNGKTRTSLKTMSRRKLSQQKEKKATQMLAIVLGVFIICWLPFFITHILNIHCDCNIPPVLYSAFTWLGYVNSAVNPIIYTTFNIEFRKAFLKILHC

SMILES: C=C(C)[C@@H]1CCC(C)=C[C@H]1c1c(O)cc(CCCCC)cc1O [cannabidiol]
- Effect on depressive symptoms ([1]; 10 mg/kg i.v. weekly for four weeks): significantly improve depressive symptoms
- Effect on depressive symptoms ([1]; 10 mg/kg p.o.): no significant effects
- Effect on depressive symptoms ([1]; 100 mg/kg p.o. weekly for four weeks): significantly improve depressive symptoms

SMILES: CNCCCN1c2ccccc2CCc2ccccc21 [desipramine, reference compound]
- Immobility time in forced swimming test (male C57BL/6 mice; 15 mg/kg dose p.o., positive control): significant reduction in immobility time

SMILES: O=c1cc(-c2ccc(O)c(O)c2)oc2cc(O)cc(O)c12 [luteolin, 3′,4′,5,7-tetrahydroxyflavone]
- IC50 (MAO-A): 8.57 ± 0.47 µM

Now from value to compound, other results behind:

- inhibition at 100 µM (hD1R): 0.7%
- % Stimulation, hD1R (hD1R): 6.95 ± 14.07%
- IC50 (hMAO-B): > 150 µM
- inhibition at 100 µM (hD3R): -0.97%
- % Stimulation, hD3R (hD3R; 100 μM compound, % of control agonist response (300 nM DA)): 38.5 ± 5.94%
- inhibition at 100 µM (hD4.4R): 134%
- inhibition at 12.5 µM (hD4.4R; 12.5 µM compound, read-out: % inhibition of the response of the control agonist, hD4.4R): 40.9%
- inhibition at 25 µM (hD4.4R; 25 µM compound, read-out: % inhibition of the response of the control agonist, hD4.4R): 57.6%
- inhibition at 50 µM (hD4.4R; 50 µM compound, read-out: % inhibition of the response of the control agonist, hD4.4R): 69%
- % Stimulation, hD4.4R (hD4.4R): 10.33 ± 7.46%
- IC50 (hD4.4R; read-out: IC50, antagonist effect at hD4.4R): 22.5 ± 2.18 µM
- inhibition at 100 µM (h5HT1AR): 18.1%
- % Stimulation, h5HT1AR (h5HT1AR): −2.9 ± 0.28%
- inhibition at 100 µM (hD2LR): -40%
- % Stimulation, hD2LR (hD2LR): −22.45 ± 2.05%
SMILES: O=c1cc(-c2ccc(O)c(O)c2)oc2cc(O)ccc12 [Compound 1, 3′,4′,7-trihydroxyflavone]
- Immobility time in forced swimming test (male C57BL/6 mice; 3, 10, and 30 mg/kg p.o., 1 h before FST): did not reduce the immobility time; also recorded: none of those doses alleviated the immobility time; also recorded: did not show an antidepressant effect

- inhibition at 100 µM (hD1R): 22.2%
- % Stimulation, hD1R (hD1R): −3.1 ± 5.66%
- SI (selective index) (hMAO-B): 2.48
- IC50 (hMAO-B): ~70 µM and 71.2 µM
- inhibition at 100 µM (hD3R): -8%
- IC50 (hMAO-A): 177 ± 7.8 µM
- inhibition at 100 µM (hD4.4R): -11.2%
- % Stimulation, hD4.4R (hD4.4R): 35.8 ± 10.59%
- inhibition at 100 µM (h5HT1AR): 7.3%
- % Stimulation, h5HT1AR (h5HT1AR): −1.1 ± 0.42%
- inhibition at 100 µM (hD2LR): -25.8%
- % Stimulation, hD2LR (hD2LR): −18.35 ± 0.78%
SMILES: O=c1c(-c2ccc(O)c(O)c2)coc2cc(O)ccc12 [Compound 2, 3′,4′,7-trihydroxyisoflavone]

- inhibition at 100 µM (hD1R): 47.8%
- % Stimulation, hD1R (hD1R): 5.65 ± 11.53%
- Ki (hMAO-B; Lineweaver–Burk plot and its secondary plots, read-out: Inhibition constants (Ki) hMAO-B): 2.56 µM
- SI (selective index) (hMAO-B): 15.82
- IC50 (hMAO-B): 7.19 ± 0.32 µM
- Inhibition mode, hMAO-B (hMAO-B; secondary plot of slopes (Kmapp/Vmaxapp) versus concentrations of inhibitor): Competitive
- inhibition at 100 µM (hD3R): -7.97%
- IC50 (hMAO-A): 114 ± 3.39 µM
- inhibition at 100 µM (hD4.4R): -27.3%
- % Stimulation, hD4.4R (hD4.4R): 33.63 ± 12.10%
- inhibition at 100 µM (h5HT1AR): 16.8%
- % Stimulation, h5HT1AR (h5HT1AR): 2.5 ± 0.42%
- inhibition at 100 µM (hD2LR): -18.6%
- % Stimulation, hD2LR (hD2LR): −13.8 ± 0.28%
SMILES: COc1ccc(-c2coc3cc(O)ccc3c2=O)cc1O [Compound 3, calycosin]

Reference: paper PMC10650131 (International Journal of Molecular Sciences, 2023)
